The values below come from US6509368B1, “Use of catechol derivatives as proteinase inhibitors” (Gruenenthal GmbH, priority 1998, dated 2003).

Structures are written as SMILES.

One assay deals with T1, Human elastase (Homo sapiens, UniProt P08246).
T1 sequence (P08246 30-247 limits assumed): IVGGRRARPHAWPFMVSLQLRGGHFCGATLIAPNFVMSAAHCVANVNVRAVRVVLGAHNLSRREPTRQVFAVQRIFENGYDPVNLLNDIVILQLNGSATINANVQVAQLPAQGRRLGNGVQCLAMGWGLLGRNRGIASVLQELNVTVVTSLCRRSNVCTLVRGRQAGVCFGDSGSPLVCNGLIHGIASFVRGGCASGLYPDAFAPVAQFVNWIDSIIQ
Description: Inhibition of purified human elastase in vitro. The format is biochemical. As to the method: (§1) The experiments were carried out in vitro using purified human enzymes. The enzyme substrates used were substrates to be measured by photometry or fluorometry.

Assay [1] concerns the target Human gelatinase B (MMP-9) (Homo sapiens, UniProt P14780). Description: Inhibition of purified human gelatinase B in vitro. The format is biochemical. The procedure: as §1
Assay [2] addresses Human leucocyte collagenase (MMP-8) (Homo sapiens, UniProt P22894). Nature of the assay: Inhibition of purified human leucocyte collagenase in vitro. The format is biochemical. The procedure:
as §1

The subject of assay [3] is mesenchymal cells from the limb buds of murine embryos (chondrocytes). Description: Organoid model of cartilage formation: mineralisation in the presence of LPS. The format is cell-based. The following applies: concentration of 10 μm; calcium content of extracellular matrix after culturing for 14 days. The procedure:
In a further in vitro experiment, the effectiveness of the compounds as regards inflammatory diseases was tested in an organoid model of cartilage formation. For that model, mesenchymal cells from the limb buds of murine embryos were placed in cell culture. In the cell culture, the cells formed an extracellular matrix corresponding to joint cartilage. Mineralisation of the extracellular matrix was induced by addition of β-glycerophosphate. Cartilage formation and mineralisation were inhibited by addition of bacterial lipopolysaccharide (LPS) as inflammation mediator. The effect of the compounds on the LPS-induced impairment of mineralisation was examined by measuring the calcium content of the extracellular matrix by flame photometry after culturing for 14 days.
The values indicate the percentage increase in mineralisation in comparison with the LPS-treated culture.

Another assay concerns the target Stromelysin-1 (MMP-3) (Homo sapiens, UniProt P08254). Nature of the assay: Inhibition of purified stromelysin-1 in vitro. The format is biochemical. As to the method:
as §1

For assay [4], the target named is T2, Human fibroblast collagenase (MMP-1) (Homo sapiens, UniProt P03956).
T2 sequence (P03956 100-469): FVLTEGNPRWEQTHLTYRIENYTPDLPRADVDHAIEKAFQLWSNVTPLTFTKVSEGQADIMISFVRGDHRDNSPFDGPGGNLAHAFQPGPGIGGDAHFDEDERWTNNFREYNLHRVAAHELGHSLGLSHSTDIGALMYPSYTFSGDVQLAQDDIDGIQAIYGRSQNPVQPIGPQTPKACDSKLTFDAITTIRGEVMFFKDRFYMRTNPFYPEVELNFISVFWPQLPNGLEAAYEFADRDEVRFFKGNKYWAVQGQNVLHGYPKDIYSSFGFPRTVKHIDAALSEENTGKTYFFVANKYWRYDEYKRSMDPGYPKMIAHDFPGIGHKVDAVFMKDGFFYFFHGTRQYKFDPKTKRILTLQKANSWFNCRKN
Description: Inhibition of purified human fibroblast collagenase in vitro. The format is biochemical. Particulars: read-out: Human fibroblast collagenase (MMP-1): % inhibition at concentration. The procedure: as §1

Chain of Stromelysin-1 (MMP-3) (P08254 100-477): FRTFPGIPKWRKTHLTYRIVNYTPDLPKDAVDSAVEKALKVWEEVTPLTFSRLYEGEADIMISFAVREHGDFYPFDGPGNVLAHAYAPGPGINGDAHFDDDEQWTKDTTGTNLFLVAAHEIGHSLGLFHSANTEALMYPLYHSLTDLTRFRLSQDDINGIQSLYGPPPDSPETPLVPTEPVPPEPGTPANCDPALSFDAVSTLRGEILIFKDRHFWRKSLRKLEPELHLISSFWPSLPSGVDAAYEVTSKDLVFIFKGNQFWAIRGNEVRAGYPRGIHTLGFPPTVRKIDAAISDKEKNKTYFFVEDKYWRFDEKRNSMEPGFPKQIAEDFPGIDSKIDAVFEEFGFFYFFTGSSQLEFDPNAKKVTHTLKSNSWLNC
Chain of Human leucocyte collagenase (MMP-8) (P22894 101-467): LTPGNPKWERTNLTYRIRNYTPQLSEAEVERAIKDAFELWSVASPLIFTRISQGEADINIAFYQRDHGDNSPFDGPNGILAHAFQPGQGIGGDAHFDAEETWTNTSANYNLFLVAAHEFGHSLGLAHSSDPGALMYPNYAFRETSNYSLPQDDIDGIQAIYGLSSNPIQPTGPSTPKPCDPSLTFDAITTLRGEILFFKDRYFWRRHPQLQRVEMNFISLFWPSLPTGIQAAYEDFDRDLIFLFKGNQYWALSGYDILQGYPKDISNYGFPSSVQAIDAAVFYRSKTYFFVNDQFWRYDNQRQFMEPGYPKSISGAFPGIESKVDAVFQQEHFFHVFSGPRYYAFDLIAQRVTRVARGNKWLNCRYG
Chain of Human gelatinase B (MMP-9) (P14780 94-707): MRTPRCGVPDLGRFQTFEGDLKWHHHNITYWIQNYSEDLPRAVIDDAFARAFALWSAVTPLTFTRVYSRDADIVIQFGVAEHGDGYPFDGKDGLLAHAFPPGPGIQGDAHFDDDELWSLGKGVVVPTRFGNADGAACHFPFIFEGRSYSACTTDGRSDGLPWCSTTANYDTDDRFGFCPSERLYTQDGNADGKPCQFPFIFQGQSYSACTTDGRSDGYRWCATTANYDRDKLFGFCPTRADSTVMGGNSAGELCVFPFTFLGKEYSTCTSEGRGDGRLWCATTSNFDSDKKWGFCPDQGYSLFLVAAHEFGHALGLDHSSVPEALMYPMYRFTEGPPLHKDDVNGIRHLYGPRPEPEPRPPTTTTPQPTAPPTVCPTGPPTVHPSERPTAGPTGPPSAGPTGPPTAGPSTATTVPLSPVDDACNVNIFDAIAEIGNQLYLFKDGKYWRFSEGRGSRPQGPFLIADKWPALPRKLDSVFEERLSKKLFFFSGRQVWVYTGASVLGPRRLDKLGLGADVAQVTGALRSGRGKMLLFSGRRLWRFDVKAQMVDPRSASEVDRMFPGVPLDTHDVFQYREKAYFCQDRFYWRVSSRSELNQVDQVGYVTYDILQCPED

Turning to `Oc1ccc(C=Cc2ccc3ccccc3c2)cc1O` [Example 5, 4-(2-naphth-2-yl-vinyl)-1,2-benzene diol], the IC50 (commonly the point on the concentration scale where inhibition reaches its midpoint) at Human elastase was determined as 0.125 µM; in assay [1], 32 µM; in assay [2], 100 µM. The “Chondrocytes: Mineralisation in the presence of LPS; action (percentage increase in mineralisation in comparison with the LPS-treated culture)” value in assay [3] was “+81%”. Besides, the inhibition at 100 µM at Stromelysin-1 (MMP-3) (100 μM, read-out: Stromelysin-1 (MMP-3) % inhibition at concentration) was 22%; in assay [4] it was 40%.

Regarding `CCCCCC#Cc1ccc(O)c(O)c1C=CC(=O)OC` [Example 2, 3-(6-hept-1-ynyl-2,3-dihydroxy-phenyl)-acrylic acid methyl ester], the figures for the IC50 (against Human elastase; in assay [2]) were 2 µM and 173 µM, respectively. Moreover, in assay [3], the “Chondrocytes: Mineralisation in the presence of LPS; action (percentage increase in mineralisation in comparison with the LPS-treated culture)” value is “+38%”.

Take `O=C(c1ccc(O)c(O)c1)c1cc(-c2ccccc2)[nH]n1` [Example 6, (3,4-dihydroxy-phenyl)(5-phenyl-1H-pyrazol-3-yl)-methanone]: in assay [3], the “Chondrocytes: Mineralisation in the presence of LPS; action (percentage increase in mineralisation in comparison with the LPS-treated culture)” value is reported as “+17%”.

Consider `OCC#CCCCCCCC#Cc1ccc(O)c(O)c1` [Example 4, 4-(11-hydroxy-undeca-1,9-diynyl)-1,2-benzene diol], for which the IC50 against Human elastase was determined as 55 µM. The “Chondrocytes: Mineralisation in the presence of LPS; action (percentage increase in mineralisation in comparison with the LPS-treated culture)” value in assay [3] is on record as “+12%”.

In the case of `COC(=O)C1=Cc2cc(O)c(O)c(O)c2CC1` [Example 1, 5,6,7-trihydroxy-3,4-dihydronaphthalene-2-carboxylic acid methyl ester], the concentration for half-maximal inhibition (IC50) against Human elastase was determined as 5.5 µM; in assay [1], 72 µM; in assay [2] it was 60 µM; on Stromelysin-1 (MMP-3), 850 µM. Also, the “Chondrocytes: Mineralisation in the presence of LPS; action (percentage increase in mineralisation in comparison with the LPS-treated culture)” value in assay [3] is on record as “+42%”.

As for `CCCCCCCCCOc1ccc(O)c(O)c1` [Example 3, 4-nonyloxy-1,2-benzene diol], the IC50 against Human elastase worked out at 1.6 µM; against Stromelysin-1 (MMP-3) it was 320 µM. In addition, the inhibition at 100 µM in assay [2] (100 μM, read-out: Human leucocyte collagenase (MMP-8): % inhibition at concentration) is 40%. Also, the “Chondrocytes: Mineralisation in the presence of LPS; action (percentage increase in mineralisation in comparison with the LPS-treated culture)” value in assay [3] is “+43%”.
